Measurements from patent US20210215714A1, “COMPLEMENT ALTERNATIVE PATHWAY-ASSOCIATED NEPHROPATHY BIOMARKERS” (Achillion Pharmaceuticals, Inc., priority 2018, published 2021).

What was measured:
[1] = Phase 2a study in C3G / IC-MPGN patients: urine albumin-to-creatinine ratio (ACR); conditions: for ACR GEOMEAN / ACR MEAN: patients A-F;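 as to all read-outs here: urine samples from C3G or IC-MPGN patients read by central lab dipstick on automated urine chemistry analyzer, ratio computed from albumin and creatinine pad absorbance, healthy volunteer urine as control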
Excerpt: 10 patients with either C3 Glomerulopathy (C3G) or Immune-Complex Membranoproliferative Glomerulonephritis (IC-MPGN) are to be enrolled across two dose groups. […] Inclusion criteria include a clinical diagnosis of C3G (C3 glomerulonephritis [C3GN] or dense deposit disease [DDD], the 2 types of C3G) or idiopathic immune-complex membranoproliferative glomerulonephritis (IC-MPGN) by renal biopsy for at least 3 months prior to dosing, with the pathologic diagnosis verified by review of the renal biopsy by the study central pathologist. Patients must have low C3 levels (<50% of the lower limit of normal) and normal or near-normal C4 levels (>90% of the lower limit of normal). Group 1 has enrolled 2 out of 2 planned patients and Group 2 has enrolled 4 out of 8 planned patients.
Albumin and creatinine levels were measured in urine samples by a central reference lab using a urine dipstick method. Urine from non-study healthy volunteers served as control samples. An automatic urinary chemical analyzer was used with a dye for the detection of albumin at >8 mg/dL. Also present on the dipstick was a pad for detection of creatinine that uses the peroxidase activity of the copper-creatinine complex. The ACR ratio was automatically calculated by the analyzer based on the light absorbent readings of the albumin and creatinine test pads.

[2] = system: AP C3 convertase formation; assay: Phase 2a study: ex vivo serum Ba production; type: in vivo, human; conditions: 14-day treatment, patients A-F
Procedure: (§1) Systemic complement proteins were measured in serum and plasma including serum Ba, plasma Bb, serum C3, serum Factor D, serum C4, and % Fragment C3.

AP activity [3] = assay: rabbit erythrocyte hemolysis (AP activity in vitro); type: cell-based; conditions: Oryctolagus cuniculus
Factor D = assay: Phase 2a study: Factor D levels in serum; type: in vivo, human; conditions: 14-day treatment, patients A-F
Procedure: as §1
Factor D levels in serum were measured using a quantitative sandwich enzyme immunoassay technique. A monoclonal antibody specific for human Complement Factor D was pre-coated onto a micro-assay plate. Standards and samples were pipetted into the wells and any Complement Factor D present was bound by the immobilized antibody. After washing away any unbound substances, an enzyme-linked polyclonal antibody specific for human Complement Factor D was added to the wells. Following a wash to remove any unbound antibody-enzyme reagent, a substrate solution was added to the wells and color develops in proportion to the amount of Complement Factor D bound in the initial step. The color development was stopped and the intensity of the color was measured spectrophotometrically at 450 nm.

AP activity [4] = assay: Wieslab assay (AP activity in vitro); type: biochemical

CC(=O)c1nn(CC(=O)N2C[C@H](F)C[C@H]2C(=O)Nc2cccc(Br)n2)c2ccc(-c3cnc(C)nc3)cc12 [Compound 1, (2S,4R)-1-(2-(3-acetyl-5-(2-methylpyrimidin-5-yl)-1H-indazol-1-yl)acetyl)-N-(6-bromopyridin-2-yl)-4-fluoropyrrolidine-2-carboxamide]
ACR ([1]; Patient A, 100 mg TID, Day 1/0 Hour): 259 mg/mmol
ACR ([1]; Patient A, 100 mg TID, Day 4): 218 mg/mmol
ACR ([1]; Patient A, 100 mg TID, Day 7/0 Hour): 233 mg/mmol
ACR ([1]; Patient A, 100 mg TID, Day 10): 228 mg/mmol
ACR ([1]; Patient A, 100 mg TID, Day 14): 175 mg/mmol
ACR ([1]; Patient A, 100 mg TID, Day 15 Taper): 144 mg/mmol
ACR ([1]; Patient A, 100 mg TID, Day 16 Taper): 143 mg/mmol
ACR ([1]; Patient A, 100 mg TID, Day 17 Taper): 115 mg/mmol
ACR ([1]; Patient A, 100 mg TID, Day 21 Taper): 140 mg/mmol
ACR ([1]; Patient A, 100 mg TID, Follow-Up Day 24): 138 mg/mmol
ACR ([1]; Patient A, 100 mg TID, Follow-Up Day 28): 132 mg/mmol
ACR ([1]; Patient A, 100 mg TID, Follow-Up Day 35): 160 mg/mmol
ACR ([1]; Patient A, 100 mg TID, Follow-Up Day 49): 147 mg/mmol
ACR ([1]; Patient A, 100 mg TID, Screen): 228 mg/mmol
ACR ([1]; Patient B, 100 mg TID, Day 1/0 Hour): 580 mg/mmol
ACR ([1]; Patient B, 100 mg TID, Day 4): 264 mg/mmol
ACR ([1]; Patient B, 100 mg TID, Day 7/0 Hour): 249 mg/mmol
ACR ([1]; Patient B, 100 mg TID, Day 10): 253 mg/mmol
ACR ([1]; Patient B, 100 mg TID, Day 14): 343 mg/mmol
ACR ([1]; Patient B, 100 mg TID, Day 15 Taper): 325 mg/mmol
ACR ([1]; Patient B, 100 mg TID, Day 16 Taper): 329 mg/mmol
ACR ([1]; Patient B, 100 mg TID, Day 17 Taper): 263 mg/mmol
ACR ([1]; Patient B, 100 mg TID, Day 21 Taper): 373 mg/mmol
ACR ([1]; Patient B, 100 mg TID, Follow-Up Day 24): 469 mg/mmol
ACR ([1]; Patient B, 100 mg TID, Follow-Up Day 28): 381 mg/mmol
ACR ([1]; Patient B, 100 mg TID, Follow-Up Day 49): 140 mg/mmol
ACR ([1]; Patient B, 100 mg TID, Screen): 486 mg/mmol
ACR ([1]; Patient C, 200 mg TID, Day 1/0 Hour): 58 mg/mmol
ACR ([1]; Patient C, 200 mg TID, Day 4): 27 mg/mmol
ACR ([1]; Patient C, 200 mg TID, Day 7/0 Hour): 22 mg/mmol
ACR ([1]; Patient C, 200 mg TID, Day 10): 35 mg/mmol
ACR ([1]; Patient C, 200 mg TID, Day 14): 30 mg/mmol
ACR ([1]; Patient C, 200 mg TID, Day 15 Taper): 44 mg/mmol
ACR ([1]; Patient C, 200 mg TID, Day 16 Taper): 26 mg/mmol
ACR ([1]; Patient C, 200 mg TID, Day 17 Taper): 32 mg/mmol
ACR ([1]; Patient C, 200 mg TID, Day 21 Taper): 23 mg/mmol
ACR ([1]; Patient C, 200 mg TID, Follow-Up Day 24): 32 mg/mmol
ACR ([1]; Patient C, 200 mg TID, Follow-Up Day 28): 47 mg/mmol
ACR ([1]; Patient C, 200 mg TID, Follow-Up Day 49): 20 mg/mmol
ACR ([1]; Patient C, 200 mg TID, Screen): 44 mg/mmol
ACR ([1]; Patient C, 200 mg TID, Screen 1): 128 mg/mmol
ACR ([1]; Patient D, 200 mg TID, Day 1/0 Hour): 224 mg/mmol
ACR ([1]; Patient D, 200 mg TID, Day 4): 279 mg/mmol
ACR ([1]; Patient D, 200 mg TID, Day 7/0 Hour): 322 mg/mmol
ACR ([1]; Patient D, 200 mg TID, Day 10): 648 mg/mmol
ACR ([1]; Patient D, 200 mg TID, Day 14): 286 mg/mmol
ACR ([1]; Patient D, 200 mg TID, Day 15 Taper): 328 mg/mmol
ACR ([1]; Patient D, 200 mg TID, Day 17 Taper): 586 mg/mmol
ACR ([1]; Patient D, 200 mg TID, Day 21 Taper): 564 mg/mmol
ACR ([1]; Patient D, 200 mg TID, Follow-Up Day 24): 282 mg/mmol
ACR ([1]; Patient D, 200 mg TID, Follow-Up Day 28): 577 mg/mmol
ACR ([1]; Patient D, 200 mg TID, Follow-Up Day 35): 398 mg/mmol
ACR ([1]; Patient D, 200 mg TID, Follow-Up Day 49): 636 mg/mmol
ACR ([1]; Patient D, 200 mg TID, Screen): 579 mg/mmol
ACR ([1]; Patient D, 200 mg TID, Screen 1): 160 mg/mmol
ACR ([1]; Patient E, 200 mg TID, Day 1/0 Hour): 424 mg/mmol
ACR ([1]; Patient E, 200 mg TID, Day 4): 418 mg/mmol
ACR ([1]; Patient E, 200 mg TID, Day 7/0 Hour): 533 mg/mmol
ACR ([1]; Patient E, 200 mg TID, Day 10): 625 mg/mmol
ACR ([1]; Patient E, 200 mg TID, Day 14): 264 mg/mmol
ACR ([1]; Patient E, 200 mg TID, Day 15 Taper): 327 mg/mmol
ACR ([1]; Patient E, 200 mg TID, Day 16 Taper): 277 mg/mmol
ACR ([1]; Patient E, 200 mg TID, Day 17 Taper): 475 mg/mmol
ACR ([1]; Patient E, 200 mg TID, Day 21 Taper): 257 mg/mmol
ACR ([1]; Patient E, 200 mg TID, Follow-Up Day 24): 303 mg/mmol
ACR ([1]; Patient E, 200 mg TID, Follow-Up Day 28): 307 mg/mmol
ACR ([1]; Patient E, 200 mg TID, Follow-Up Day 49): 327 mg/mmol
ACR ([1]; Patient F, 200 mg TID, Day 4): 152 mg/mmol
ACR ([1]; Patient F, 200 mg TID, Day 7/0 Hour): 94 mg/mmol
ACR ([1]; Patient F, 200 mg TID, Day 14): 184 mg/mmol
ACR ([1]; Patient F, 200 mg TID, Day 15 Taper): 720 mg/mmol
ACR ([1]; Patient F, 200 mg TID, Day 16 Taper): 235 mg/mmol
ACR ([1]; Patient F, 200 mg TID, Day 17 Taper): 475 mg/mmol
ACR ([1]; Patient F, 200 mg TID, Day 21 Taper): 348 mg/mmol
ACR ([1]; Patient F, 200 mg TID, Follow-Up Day 24): 279 mg/mmol
ACR ([1]; Patient F, 200 mg TID, Follow-Up Day 28): 253 mg/mmol
ACR ([1]; Patient F, 200 mg TID, Follow-Up Day 35): 168 mg/mmol
ACR ([1]; Patient F, 200 mg TID, Follow-Up Day 49): 564 mg/mmol
ACR ([1]; Patient F, 200 mg TID, Screen): 308 mg/mmol
reductions in ACR ([1]; Patients A, B, C, E, and F, two-week treatment): approximately 50%
ACR GEOMEAN ([1]; Day 1/0 Hour): 249.6 mg/mmol
ACR MEAN ([1]; Day 1/0 Hour): 306.4 mg/mmol
ACR GEOMEAN ([1]; Day 4): 174.0 mg/mmol
ACR MEAN ([1]; Day 4): 226.3 mg/mmol
ACR GEOMEAN ([1]; Day 7/0 Hour): 164.9 mg/mmol
ACR MEAN ([1]; Day 7/0 Hour): 242.1 mg/mmol
ACR GEOMEAN ([1]; Day 14): 171.4 mg/mmol
ACR MEAN ([1]; Day 14): 213.8 mg/mmol
ACR GEOMEAN ([1]; Day 15 Taper): 232.4 mg/mmol
ACR MEAN ([1]; Day 15 Taper): 314.6 mg/mmol
ACR GEOMEAN ([1]; Day 17 Taper): 224.2 mg/mmol
ACR MEAN ([1]; Day 17 Taper): 324.2 mg/mmol
ACR GEOMEAN ([1]; Day 21 Taper): 197.9 mg/mmol
ACR MEAN ([1]; Day 21 Taper): 284.0 mg/mmol
ACR GEOMEAN ([1]; Follow-Up Day 24): 191.6 mg/mmol
ACR MEAN ([1]; Follow-Up Day 24): 250.6 mg/mmol
ACR GEOMEAN ([1]; Follow-Up Day 28): 217.5 mg/mmol
ACR MEAN ([1]; Follow-Up Day 28): 282.6 mg/mmol
ACR GEOMEAN ([1]; Follow-Up Day 49): 191.1 mg/mmol
ACR MEAN ([1]; Follow-Up Day 49): 305.6 mg/mmol
Ex vivo serum Ba production [2]: inhibited
IC50 (AP activity [3]): 27 nM
Serum Factor D (Factor D): remained unchanged
IC50 (AP activity [4]): 26 nM
